Where two headings read alike, the source gives them in different places.
Key:
[1] = Acute toxicity (LD50) in mice; conditions: mouse, in vivo, observation time 14 days
Protocol: The acute toxicity of the test compounds was determined in mice (observation time: 14 days). The LD50 was calculated from the percentage of animals which died within the observation time after administration, i.v. or p.o., of varying doses [see J. Pharmacol. exper. Therap. 96, 99 (1949)].

[2] = system: platelet adhesiveness in human blood; test: Morris retention test, inhibition of platelet adhesiveness; assay type: cell-based; conditions: 10 min; for inhibition at 10 µM: 10 μ mols/liter, 10 minutes at 37°C, glass beads
Protocol: 2. Determination of inhibiting effect on platelet adhesiveness in human blood by the so-called retention test according to Morris (E. Deutsch, E. Gerlach and K. Moser: 1. Internationales Symposium uber Stoffwechsel und Membranpermeabilitat von Erythrozyten and Thrombozyten, Vienna, 1969; Georg Thieme Verlag, Stuttgart, Germany).
To determine the inhibiting action of the test compound on thrombocyte aggregation, 1 ml of human blood was pipetted into each of a plurality of small test tubes, and the test compound was added to give a final concentration of 5 × 10^-^5 mol/liter or 1 × 10^^-5 mol/liter. The tubes were incubated for 10 minutes at 37°C. 1 gm of glass beads (for gas-chromatography) was added to half of the tubes. Then, the stoppered tubes were attached to a disc mounted for rotation about a horizontal axis and rotated for 1 minute. By this means good contact was obtained between the glass beads and the blood. The tubes were then left standing at room temperature for another hour, after which time a satisfactory sedimentation of erythrocytes had taken place. 0.01 ml of the supernatant plasma was removed, diluted 1:8000 with celloscope solution, and the platelet count was read in a celloscope. The percentage reduction of the stickiness due to the presence of the test compound, compared to the tubes containing no glass beads, was measured (average values of 4- 6 tests).

[3] = system: platelet aggregation in human blood plasma; test: Born and Cross test, ADP-induced platelet aggregation; assay type: cell-based; conditions: 10 min, human platelet-rich plasma, 10 minutes at 37°C, read-out: Born and Cross test (ADP) EC50 (concentration which causes a 50% alteration of the "optical density")
Protocol: 1. Determination of inhibiting effect upon platelet aggregation in human blood plasma by the method of Born and cross, J. Physiol. 170, 397 (1964):
The platelet aggregation was measured in the platelet-rich plasma of normal, healthy human donors. The rate of decline of the optical density of the platelet suspension was measured and recorded photometrically after the addition of adenosine diphosphate (ADP). From the angle of inclination of the density curve, the speed of aggregation was concluded. The optical density was taken as the point on the curve where most light was transmitted. The smallest possible doses of ADP were chosen, but enough to result in irreversible aggregation. The plasma was incubated at 37°C for 10 minutes with varying quantities of the test compound before ADP was added.

[4] = Hygroscopicity remark on acid addition salt; assay type: physicochemical; conditions: printed beside m.p. of the salt

Row | SMILES | LD50 at 336 h ([1]; iv, read-out: LD50 i.v.) | LD50 at 336 h ([1]; po, read-out: LD50 p.o.) | inhibition at 10 µM [2] | IC50 [3] | hygroscopicity [4] | inhibition at 30 µM ([2]; Concentration: 30μ mols/liter (footnote +))
1 | Cc1nc(N2CCNCC2)nc(N2CC[S+]([O-])CC2)c1[N+](=O)[O-] [A, 6-methyl-5-nitro-2-piperazino-4-(1-oxido-thiomorpholino)-pyrimidine] | 160 mg/kg | 600 mg/kg | 92% | 12 nM | – | –
2 | Cc1nc(N2CCNCC2)nc(N2CCSCC2)c1[N+](=O)[O-] [B, 6-methyl-5-nitro-2-piperazino-4-thiomorpholino-pyrimidine] | 70 mg/kg | 620 mg/kg | 66% | 3000 nM | – | –
3 | N#Cc1nc(N2CCNCC2)nc(N2CC[S+]([O-])CC2)c1Cl [C, 5-chloro-6-cyano-2-piperazino-4-(1-oxido-thiomorpholino)-pyrimidine] | 101 mg/kg | 836 mg/kg | 92% | 130 nM | – | –
4 | CCOc1nc(N2CCNCC2)nc(N2CC[S+]([O-])CC2)c1[N+](=O)[O-] [D, 6-ethoxy-5-nitro-4-(1-oxido-thiomorpholino)-2-piperazino-pyrimidine] | 150 mg/kg | 600 mg/kg | 100% | 25 nM | – | –
5 | CC(C)Oc1nc(N2CCNCC2)nc(N2CC[S+]([O-])CC2)c1[N+](=O)[O-] [E, 5-nitro-4-(1-oxido-thiomorpholino)-2-piperazino-6-isopropoxy-pyrimidine] | 170 mg/kg | 500 mg/kg | 69% | 200 nM | – | –
6 | CCC(C)Oc1nc(N2CCNCC2)nc(N2CCS(=O)(=O)CC2)c1[N+](=O)[O-] (stereo not shown) [F, 6-sec.Butoxy-4-(1,1-dioxido-thiomorpholino)-5-nitro-2-piperazino-pyrimidine] | 150 mg/kg | 1500 mg/kg | 61% | 850 nM | – | –
7 | CCOc1nc(N2CCNCC2)nc(N2CC[S+]([O-])CC2)c1[N+](=O)[O-] [Fumarate, 6-Ethoxy-5-nitro-4-(1-oxido-thiomorpholino)-2-piperazino-pyrimidine] | – | – | – | – | hydroscopic | –
8 | CSc1nc(N2CCN(C=O)CC2)nc(N2CC[S+]([O-])CC2)c1[N+](=O)[O-] [G, 6-methylthio-5-nitro-4-(1-oxido-thiomorpholino)-2-(N'-formyl-piperazino)-pyrimidine] | – | > 1000 mg/kg | 2% | 50000 nM | – | –
9 | CC(=O)CC(=O)N1CCN(c2nc(C)c([N+](=O)[O-])c(N3CC[S+]([O-])CC3)n2)CC1 [H, 6-methyl-5-nitro-4-(1-oxido-thiomorpholino)-2-(N'-acetoacetyl-piperazino)-pyrimidine] | – | > 1000 mg/kg | – | 100000 nM | – | 11%
